Entries after “also recorded” stand apart in the source; their conditions may differ. Positions of bridges follow the written chain, without caps; N, C: chain ends. Non-standard residues stand in square brackets, D forms with d. Residues, ends and D or L forms follow the SMILES beside them. *: point of attachment. Benzoyl(3-SO2F) = O=C(c1cccc(S(=O)(=O)F)c1)*; R8 = C=CCCCCCC[C@@](C)(N)C(=O)O; S5 = C=CCCC[C@](C)(N)C(=O)O; Dap = NC[C@H](N)C(=O)O

For data set [1], the target named is T1, p53-Mdm4 interaction (Homo sapiens, UniProt O15151).
T1 construct: expressed in transfected cells; host or cells: Saos-2 (p53-null) ReBiL reporter cells; lysate
T1 sequence (O15151 1-490): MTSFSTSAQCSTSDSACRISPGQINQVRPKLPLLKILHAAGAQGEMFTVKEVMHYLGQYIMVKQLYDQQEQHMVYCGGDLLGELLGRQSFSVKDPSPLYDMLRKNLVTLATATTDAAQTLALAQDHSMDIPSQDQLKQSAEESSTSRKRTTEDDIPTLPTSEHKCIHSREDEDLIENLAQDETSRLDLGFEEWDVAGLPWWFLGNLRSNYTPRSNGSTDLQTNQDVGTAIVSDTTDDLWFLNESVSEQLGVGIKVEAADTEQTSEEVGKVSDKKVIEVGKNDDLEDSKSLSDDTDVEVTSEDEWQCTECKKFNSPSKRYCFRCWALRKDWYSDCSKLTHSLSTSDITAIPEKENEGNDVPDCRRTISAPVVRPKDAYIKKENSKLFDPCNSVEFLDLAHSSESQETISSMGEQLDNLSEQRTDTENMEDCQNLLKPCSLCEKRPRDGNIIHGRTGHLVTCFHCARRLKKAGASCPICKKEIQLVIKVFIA
Description: ReBiL assay of peptide inhibition of p53-Mdm4 interaction in cell lysates. Conditions: Saos-2 cell lysates. The data set is classed as biochemical. The source says:
In ReBiL, luciferase is split and separately fused to Mdm2/Mdm4 and p53, and the expression cassette is integrated into a single chromosomal site in host cells (FIG. 3A). Inhibition of the interaction between p53 and Mdm2/Mdm4 results in a decrease in luciferase activity.

For data set [2], the target named is T2, Brca1-Bard1 interaction (Homo sapiens, UniProt P38398+Q99728).
T2 construct: expressed in transfected cells; host or cells: Saos-2 ReBiL reporter cells; lysate
T2 sequence (P38398 whole entry): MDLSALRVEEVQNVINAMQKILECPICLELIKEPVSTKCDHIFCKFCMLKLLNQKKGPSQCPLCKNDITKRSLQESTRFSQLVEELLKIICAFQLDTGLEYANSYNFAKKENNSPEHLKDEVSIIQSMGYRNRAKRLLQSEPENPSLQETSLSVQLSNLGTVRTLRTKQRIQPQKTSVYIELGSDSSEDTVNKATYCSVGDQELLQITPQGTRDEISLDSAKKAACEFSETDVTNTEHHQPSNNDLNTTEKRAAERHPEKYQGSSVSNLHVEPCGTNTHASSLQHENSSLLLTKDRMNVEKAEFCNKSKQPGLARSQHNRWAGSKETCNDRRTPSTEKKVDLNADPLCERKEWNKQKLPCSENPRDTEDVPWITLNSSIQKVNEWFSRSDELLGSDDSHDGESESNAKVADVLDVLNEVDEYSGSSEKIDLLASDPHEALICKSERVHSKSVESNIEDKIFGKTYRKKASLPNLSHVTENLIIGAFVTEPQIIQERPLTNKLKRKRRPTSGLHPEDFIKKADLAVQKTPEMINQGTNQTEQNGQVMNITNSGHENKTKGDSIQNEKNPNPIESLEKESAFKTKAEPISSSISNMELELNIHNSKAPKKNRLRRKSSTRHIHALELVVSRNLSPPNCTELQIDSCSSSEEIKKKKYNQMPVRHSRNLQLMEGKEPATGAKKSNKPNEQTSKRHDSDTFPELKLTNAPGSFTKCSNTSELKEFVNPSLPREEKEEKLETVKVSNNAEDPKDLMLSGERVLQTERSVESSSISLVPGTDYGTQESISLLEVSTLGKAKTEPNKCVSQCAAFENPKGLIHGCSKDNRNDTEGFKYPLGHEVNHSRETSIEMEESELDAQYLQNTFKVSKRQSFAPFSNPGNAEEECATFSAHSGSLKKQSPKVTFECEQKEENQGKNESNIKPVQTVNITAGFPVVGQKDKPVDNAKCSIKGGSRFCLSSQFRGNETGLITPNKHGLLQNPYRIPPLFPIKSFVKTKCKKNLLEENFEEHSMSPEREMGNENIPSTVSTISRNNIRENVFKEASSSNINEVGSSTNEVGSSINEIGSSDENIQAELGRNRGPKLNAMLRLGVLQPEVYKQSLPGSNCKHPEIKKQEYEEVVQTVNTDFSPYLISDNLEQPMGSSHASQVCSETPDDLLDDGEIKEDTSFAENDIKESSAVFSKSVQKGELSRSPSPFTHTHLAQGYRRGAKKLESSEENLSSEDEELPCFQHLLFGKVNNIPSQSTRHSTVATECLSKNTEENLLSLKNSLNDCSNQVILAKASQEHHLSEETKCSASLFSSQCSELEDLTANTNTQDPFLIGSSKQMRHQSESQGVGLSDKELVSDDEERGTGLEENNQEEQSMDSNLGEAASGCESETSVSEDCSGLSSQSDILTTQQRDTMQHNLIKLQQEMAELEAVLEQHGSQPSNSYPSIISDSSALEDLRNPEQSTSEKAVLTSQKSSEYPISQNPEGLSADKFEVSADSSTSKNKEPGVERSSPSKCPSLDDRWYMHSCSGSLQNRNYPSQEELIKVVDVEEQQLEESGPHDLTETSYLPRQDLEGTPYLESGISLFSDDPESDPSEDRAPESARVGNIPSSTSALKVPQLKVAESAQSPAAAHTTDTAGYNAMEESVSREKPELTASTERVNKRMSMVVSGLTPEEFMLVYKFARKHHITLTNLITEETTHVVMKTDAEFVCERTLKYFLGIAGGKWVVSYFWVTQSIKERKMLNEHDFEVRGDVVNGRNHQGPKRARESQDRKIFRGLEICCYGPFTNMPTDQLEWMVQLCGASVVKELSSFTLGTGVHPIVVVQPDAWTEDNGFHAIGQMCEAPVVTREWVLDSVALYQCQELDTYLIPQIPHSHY
T2 sequence (Q99728 whole entry): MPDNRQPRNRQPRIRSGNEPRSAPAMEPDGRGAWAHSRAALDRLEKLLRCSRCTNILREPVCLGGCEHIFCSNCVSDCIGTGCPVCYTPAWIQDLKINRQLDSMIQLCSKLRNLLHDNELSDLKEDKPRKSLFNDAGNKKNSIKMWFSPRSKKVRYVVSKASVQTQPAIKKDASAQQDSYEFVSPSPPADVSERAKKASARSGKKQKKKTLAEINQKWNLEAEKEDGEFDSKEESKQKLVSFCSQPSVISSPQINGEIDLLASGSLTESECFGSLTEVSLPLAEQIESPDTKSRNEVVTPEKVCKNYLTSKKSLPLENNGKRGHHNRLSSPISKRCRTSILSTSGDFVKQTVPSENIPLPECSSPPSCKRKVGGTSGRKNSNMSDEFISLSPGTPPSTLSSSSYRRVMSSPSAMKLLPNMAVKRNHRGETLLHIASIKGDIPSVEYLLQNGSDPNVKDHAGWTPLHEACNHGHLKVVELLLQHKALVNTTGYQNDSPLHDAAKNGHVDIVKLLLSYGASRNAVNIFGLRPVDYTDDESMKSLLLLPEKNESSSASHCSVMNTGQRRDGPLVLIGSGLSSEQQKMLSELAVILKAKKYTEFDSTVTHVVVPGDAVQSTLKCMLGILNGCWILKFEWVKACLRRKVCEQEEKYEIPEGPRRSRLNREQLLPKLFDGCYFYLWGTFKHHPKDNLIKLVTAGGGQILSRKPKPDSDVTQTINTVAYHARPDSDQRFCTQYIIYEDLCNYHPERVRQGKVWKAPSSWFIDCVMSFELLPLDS
Description: ReBiL assay of peptide inhibition of Brca1-Bard1 interaction in cell lysates (binding selectivity). The data set is classed as biochemical. The note with it: cell lysates of Saos-2 cells. The procedure: To test the binding selectivity of peptides 2, 4 and 5, we then incubated the peptides with cell lysates of Saos-2 cells harboring ReBiL system expressing Brca1-Bard1 instead of p53-Mdm2/Mdmx.

The subject of data set [3] is His-tagged Mdm4. The data set can be described thus: Covalent binding to purified Mdm4 (anti-His immunoblot band shift, ESI-MS). From the text:
FIG. 4. […] After separation by SDS-PAGE, an anti-His antibody was used to detect Mdm4.
In general terms: Immunoblotting shows a protein as a band on a membrane.

The test system of data set [4] is p53 null Saos-2 cells. Description: Cell viability (p53-independent cytotoxicity), CELL TITER-GLO assay. The note with it: 37° C., 8 h, 50, 25, 12.5 uM. (Cellular ATP, detected with luciferase, serves as a proxy for viable cell number.)
Description: Error bars are s.e.m. (n=5) and normalized to the luminescence reading of DMSO treated cells.
Cell viability was measured on the p53-null Saos-2 cells by CELL TITER-GLO® assay per Promega's instructions. Peptides were incubated with the Saos-2 cells at 37° C. for 8 h.

For `CC(=O)N[C@@H](CCC(N)=O)C(=O)N[C@@H](CO)C(=O)N[C@@H](CCC(N)=O)C(=O)N[C@@H](CCC(N)=O)C(=O)N[C@H](C(=O)N[C@@H](Cc1ccccc1)C(=O)N[C@]1(C)CCCCCCC=CCCC[C@@](C)(C(=O)N[C@@H](CCC(N)=O)C(=O)N[C@@H](CC(N)=O)C(N)=O)NC(=O)[C@H](CC(C)C)NC(=O)[C@H](CC(C)C)NC(=O)[C@H](CCCNC(=N)N)NC(=O)[C@H](Cc2c[nH]c3ccccc23)NC(=O)[C@H](CNC(=O)c2cccc(S(=O)(=O)F)c2)NC(=O)[C@H](CC(N)=O)NC1=O)[C@@H](C)O` [Peptide 4] (Ac-QSQQTF[R8]N[Dap](Benzoyl(3-SO2F))WRLL[S5]QN-NH2; staple 7-14 (inferred)), the “activity to Mdm4 relative to Mdm2” value in data set [1] is on record as “ten-fold higher”. For the same compound, in data set [2], the “inhibition of Brca1-Bard1 interaction” value is on record as “did not inhibit”. The “time until crosslinking ("sulfate click reaction") with Mdm4 was complete” value in data set [3] (37° C., PBS buffer pH 7.5) is reported as no more than 10 min. Also, in data set [3] (Mdm4 1.5 μM, peptide 3 μM, PBS buffer pH 7.5, 37° C., 10, 20 and 60 min), the “shift of Mdm4 band to higher molecular weight (covalent binding), immunoblot” value is “shifted the Mdm4 band to a higher molecular weight; also recorded: shift of the band to a higher molecular weight”. Moreover, the “covalent complex formation with Mdm4 by ESI-MS” value in data set [3] (incubated 60 min) is recorded as “confirmed the covalent complex formation”. Besides, the “cell viability / cytotoxicity” value in data set [4] is “no significant cytotoxicity; also recorded: nontoxic”.
